Assay results as given in the NIST ThermoML archive (doi:10.1021/acs.jced.7b01026).

Legend:
[1] = Crystal; DTA
[2] = molar heat capacity at constant pressure
[3] = Molar enthalpy of transition or fusion; conditions: Crystal; DSC

Cc1cccc(C=O)c1 [3-methylbenzaldehyde]
Conditions | Normal melting temperature [°C]
[1] | -48.4

[2], 101.33 kPa, Liquid, DSC
Conditions | molar heat capacity at constant pressure [J/K/mol]
273.17 K | 189.47
313.16 K | 205.93
353.15 K | 219.75
393.14 K | 235.61
453.11 K | 258.08

Cc1cccc(CO)c1 [3-methylbenzyl alcohol]
Conditions | Molar enthalpy of transition or fusion [kcal/mol] | Normal melting temperature [°C]
[1] | – | -8.8
[3] | 3.24 | –

[2], 101.33 kPa, DSC, Liquid
Conditions | molar heat capacity at constant pressure [J/K/mol]
266.15 K | 222.22
306.15 K | 250.8
356.15 K | 281.1
406.15 K | 295.27
456.15 K | 308.1

Cc1ccc(C=O)cc1 [4-methylbenzaldehyde]
Conditions | Molar enthalpy of transition or fusion [kcal/mol] | Normal melting temperature [°C]
[1] | – | -10.0
[3] | 2.64 | –

[2], 101.33 kPa, DSC, Liquid
Conditions | molar heat capacity at constant pressure [J/K/mol]
273.17 K | 191.4
313.16 K | 204.25
353.15 K | 216.27
393.14 K | 232.37
453.11 K | 250.99

Cc1ccc(C(=O)O)cc1 [4-methylbenzoic acid]
Conditions | Molar enthalpy of transition or fusion [kcal/mol] | Normal melting temperature [°C]
[1] | – | 179.0
[3] | 5.14 | –

[2], 101.33 kPa, Liquid, DSC
Conditions | molar heat capacity at constant pressure [J/K/mol]
458.15 K | 331.25
473.15 K | 338.33
488.15 K | 347.59
503.15 K | 353.98
523.15 K | 362.02

Cc1ccc(C=O)o1 [5-methylfurfural]
Conditions | Molar enthalpy of transition or fusion [kcal/mol] | Normal melting temperature [°C]
[1] | – | -32.6
[3] | 2.76 | –

[2], 101.33 kPa, Liquid, DSC
Conditions | molar heat capacity at constant pressure [J/K/mol]
250.15 K | 180.47
300.15 K | 192.47
350.14 K | 202.49
400.13 K | 219.34
450.1 K | 233.54

CCOC(=O)Cc1ccccc1 [ethyl phenylacetate]
Conditions | Molar enthalpy of transition or fusion [kcal/mol] | Normal melting temperature [°C]
[1] | – | -29
[3] | 4.32 | –

[2], 101.33 kPa, Liquid, DSC
Conditions | molar heat capacity at constant pressure [J/K/mol]
253.15 K | 271.75
293.15 K | 288.83
333.15 K | 292.77
373.15 K | 306.89
413.15 K | 326.27

CCCCCCC1CCCCC1 [hexylcyclohexane]
Conditions | Molar enthalpy of transition or fusion [kcal/mol] | Normal melting temperature [°C]
[1] | – | -48.2
[3] | 4.91 | –

[2], 101.33 kPa, Liquid, DSC
Conditions | molar heat capacity at constant pressure [J/K/mol]
228.16 K | 292.03
288.16 K | 330.24
348.14 K | 361.21
408.13 K | 408.85
468.09 K | 463.72

CC(=O)Oc1ccccc1 [phenyl ethanoate]
Conditions | Molar enthalpy of transition or fusion [kcal/mol] | Normal melting temperature [°C]
[1] | – | -7
[3] | 3.06 | –

[2], 101.33 kPa, Liquid, DSC
Conditions | molar heat capacity at constant pressure [J/K/mol]
253.15 K | 220.42
293.15 K | 224.78
333.15 K | 240.03
373.15 K | 255.41
413.15 K | 269.44

CCCCCC(=O)CCCCC [undecan-6-one]
Conditions | Molar enthalpy of transition or fusion [kcal/mol] | Normal melting temperature [°C]
[1] | – | 13
[3] | 7.49 | –

[2], 101.33 kPa, Liquid, DSC
Conditions | molar heat capacity at constant pressure [J/K/mol]
293.16 K | 363.74
343.16 K | 381.62
373.15 K | 402.4
423.13 K | 422.49
473.1 K | 463.02
